What follows are compounds tested against T1, alpha2C receptor (Homo sapiens, UniProt P18825) (assay: RSAT assay, alpha2C receptor). Details: ratio of maximal effect to that of standard full agonist brimonidine (UK14304), value in parentheses.
T1 construct: expressed in transfected cells; host or cells: NIH-3T3 cells
T1 sequence (P18825 1-462): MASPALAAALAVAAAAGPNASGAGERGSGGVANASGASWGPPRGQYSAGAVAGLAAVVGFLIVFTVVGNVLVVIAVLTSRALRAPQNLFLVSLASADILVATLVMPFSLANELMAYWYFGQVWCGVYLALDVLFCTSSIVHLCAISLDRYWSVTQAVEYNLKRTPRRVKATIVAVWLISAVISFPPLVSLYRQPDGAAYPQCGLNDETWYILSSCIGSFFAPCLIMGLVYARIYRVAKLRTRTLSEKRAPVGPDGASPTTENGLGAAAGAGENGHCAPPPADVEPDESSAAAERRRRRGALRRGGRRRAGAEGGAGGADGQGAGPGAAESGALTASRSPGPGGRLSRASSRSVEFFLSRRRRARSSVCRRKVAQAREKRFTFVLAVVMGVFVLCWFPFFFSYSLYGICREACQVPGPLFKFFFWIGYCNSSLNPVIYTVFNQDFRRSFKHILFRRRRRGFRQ
Type: cell-based
Protocol: (§1) Receptor Selection and Amplification Technology (RSAT) Assay
(§2) The RSAT assay measures a receptor-mediated loss of contact inhibition that results in selective proliferation of receptor-containing cells in a mixed population of confluent cells. The increase in cell number is assessed with an appropriate transfected marker gene such as β-galactosidase, the activity of which can be easily measured in a 96-well format. Receptors that activate the G protein, Gq, elicit this response. Alpha2 receptors, which normally couple to Gi, activate the RSAT response when coexpressed with a hybrid Gq protein that has a Gi receptor recognition domain, called Gq/i5.
(§3) NIH-3T3 cells are plated at a density of 2×10^6 cells in 15 cm dishes and maintained in Dulbecco's modified Eagle's medium supplemented with 10% calf serum. One day later, cells are cotransfected by calcium phosphate precipitation with mammalian expression plasmids encoding p-SV-β-galactosidase (5-10 μg), receptor (1-2 μg) and G protein (1-2 μg). 40 μg salmon sperm DNA may also be included in the transfection mixture. Fresh media is added on the following day and 1-2 days later, cells are harvested and frozen in 50 assay aliquots. Cells are thawed and 100 μl added to 100 μl aliquots of various concentrations of drugs in triplicate in 96-well dishes. Incubations continue 72-96 hr at 37° C. After washing with phosphate-buffered saline, β-galactosidase enzyme activity is determined by adding 200 μl of the chromogenic substrate (consisting of 3.5 mM o-nitrophenyl-β-D-galactopyranoside and 0.5% nonidet P-40 in phosphate buffered saline), incubating overnight at 30° C. and measuring optical density at 420 nm. The absorbance is a measure of enzyme activity, which depends on cell number and reflects a receptor-mediated cell proliferation. The efficacy or intrinsic activity is calculated as a ratio of the maximal effect of the drug to the maximal effect of a standard full agonist for each receptor subtype. Brimonidine, also called UK14304, the chemical structure of which is shown below, is used as the standard agonist for the alpha2A, alpha2B and alpha2C receptors. The EC50 is the concentration at which the drug effect is half of its maximal effect.
(§4) The results of the RSAT assay with several exemplary compounds of the invention are disclosed in Table 1 above together with the chemical formulas of these exemplary compounds. EC50 values are nanomolar. ND stands for “not determinable” at concentrations less than 10 micromolar. IA stands for “intrinsic activity.”

| SMILES | Alpha 2C intrinsic activity (efficacy) |
| --- | --- |
| c1ccc(C(c2cnc[nH]2)c2cccc3cccnc23)nc1 (stereo not shown) | 0.60 |
| c1ccc(C(c2cnc[nH]2)c2cccc3ncccc23)nc1 (stereo not shown) | 0.22 |
| c1cncc(C(c2cnc[nH]2)c2cccc3cccnc23)c1 (stereo not shown) | 1.16 |
| c1cc(C(c2ccncc2)c2cnc[nH]2)c2cccnc2c1 (stereo not shown) | 0.18 |
| c1cncc(C(c2cnc[nH]2)c2cccc3c2OCC3)c1 (stereo not shown) | 1.12 |
| c1ccc(C(c2cnc[nH]2)c2cccc3c2OCC3)nc1 (stereo not shown) | 0.86 |
| c1cncc(C(c2cnc[nH]2)c2cccc3ncccc23)c1 (stereo not shown) | 0.33 |

Same assay, conditions: transfected NIH-3T3 cells with Gq/i5, ND = not determinable at concentrations less than 10 micromolar, read-out: Alpha 2C potency (EC50)

| SMILES | EC50 |
| --- | --- |
| c1ccc(C(c2cnc[nH]2)c2cccc3cccnc23)nc1 (stereo not shown) | 0.275 µM |
| c1ccc(C(c2cnc[nH]2)c2cccc3ncccc23)nc1 (stereo not shown) | > 10 µM |
| c1cncc(C(c2cnc[nH]2)c2cccc3cccnc23)c1 (stereo not shown) | 0.123 µM |
| c1cc(C(c2ccncc2)c2cnc[nH]2)c2cccnc2c1 (stereo not shown) | > 10 µM |
| c1cncc(C(c2cnc[nH]2)c2cccc3c2OCC3)c1 (stereo not shown) | 0.157 µM |
| c1ccc(C(c2cnc[nH]2)c2cccc3c2OCC3)nc1 (stereo not shown) | 0.159 µM |
| c1cncc(C(c2cnc[nH]2)c2cccc3ncccc23)c1 (stereo not shown) | > 10 µM |

Each compound was assayed against T2, alpha2B receptor (Homo sapiens, UniProt P18089) (assay: RSAT assay, alpha2B receptor). Details: ratio of maximal effect to that of standard full agonist brimonidine (UK14304), value in parentheses.
T2 construct: expressed in transfected cells; host or cells: NIH-3T3 cells
T2 sequence (P18089 1-450): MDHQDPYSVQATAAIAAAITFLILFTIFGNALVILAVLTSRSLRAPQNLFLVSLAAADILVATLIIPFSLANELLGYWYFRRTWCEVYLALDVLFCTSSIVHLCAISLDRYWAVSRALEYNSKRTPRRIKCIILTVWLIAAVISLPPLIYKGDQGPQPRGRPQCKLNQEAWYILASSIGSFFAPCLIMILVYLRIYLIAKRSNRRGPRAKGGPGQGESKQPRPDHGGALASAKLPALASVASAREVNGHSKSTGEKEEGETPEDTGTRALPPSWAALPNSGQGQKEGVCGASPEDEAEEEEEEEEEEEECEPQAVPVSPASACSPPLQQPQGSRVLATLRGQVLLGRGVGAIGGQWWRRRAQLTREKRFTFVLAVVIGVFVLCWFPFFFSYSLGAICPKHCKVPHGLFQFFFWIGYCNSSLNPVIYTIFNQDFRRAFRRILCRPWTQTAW
Type: cell-based
Protocol: as §1, §2, §3, §4

| SMILES | Alpha 2B intrinsic activity (efficacy) |
| --- | --- |
| c1ccc(C(c2cnc[nH]2)c2cccc3cccnc23)nc1 (stereo not shown) | 1.00 |
| c1ccc(C(c2cnc[nH]2)c2cccc3ncccc23)nc1 (stereo not shown) | 0.45 |
| c1cncc(C(c2cnc[nH]2)c2cccc3cccnc23)c1 (stereo not shown) | 1.29 |
| c1cc(C(c2ccncc2)c2cnc[nH]2)c2cccnc2c1 (stereo not shown) | 0.65 |
| c1cncc(C(c2cnc[nH]2)c2cccc3c2OCC3)c1 (stereo not shown) | 1.13 |
| c1ccc(C(c2cnc[nH]2)c2cccc3c2OCC3)nc1 (stereo not shown) | 0.87 |
| c1cncc(C(c2cnc[nH]2)c2cccc3ncccc23)c1 (stereo not shown) | 0.90 |

Same assay, conditions: transfected NIH-3T3 cells with Gq/i5, ND = not determinable at concentrations less than 10 micromolar, read-out: Alpha 2B potency (EC50)

| SMILES | EC50 |
| --- | --- |
| c1ccc(C(c2cnc[nH]2)c2cccc3cccnc23)nc1 (stereo not shown) | 0.022 µM |
| c1ccc(C(c2cnc[nH]2)c2cccc3ncccc23)nc1 (stereo not shown) | 0.348 µM |
| c1cncc(C(c2cnc[nH]2)c2cccc3cccnc23)c1 (stereo not shown) | 0.00215 µM |
| c1cc(C(c2ccncc2)c2cnc[nH]2)c2cccnc2c1 (stereo not shown) | 0.771 µM |
| c1cncc(C(c2cnc[nH]2)c2cccc3c2OCC3)c1 (stereo not shown) | 0.01 µM |
| c1ccc(C(c2cnc[nH]2)c2cccc3c2OCC3)nc1 (stereo not shown) | 0.00912 µM |
| c1cncc(C(c2cnc[nH]2)c2cccc3ncccc23)c1 (stereo not shown) | 0.231 µM |

The compounds below were run against T3, alpha2A receptor (Homo sapiens, UniProt P08913) (assay: RSAT assay, alpha2A receptor). Details: ratio of maximal effect to that of standard full agonist brimonidine (UK14304), value in parentheses.
T3 construct: expressed in transfected cells; host or cells: NIH-3T3 cells
T3 sequence (P08913 1-465): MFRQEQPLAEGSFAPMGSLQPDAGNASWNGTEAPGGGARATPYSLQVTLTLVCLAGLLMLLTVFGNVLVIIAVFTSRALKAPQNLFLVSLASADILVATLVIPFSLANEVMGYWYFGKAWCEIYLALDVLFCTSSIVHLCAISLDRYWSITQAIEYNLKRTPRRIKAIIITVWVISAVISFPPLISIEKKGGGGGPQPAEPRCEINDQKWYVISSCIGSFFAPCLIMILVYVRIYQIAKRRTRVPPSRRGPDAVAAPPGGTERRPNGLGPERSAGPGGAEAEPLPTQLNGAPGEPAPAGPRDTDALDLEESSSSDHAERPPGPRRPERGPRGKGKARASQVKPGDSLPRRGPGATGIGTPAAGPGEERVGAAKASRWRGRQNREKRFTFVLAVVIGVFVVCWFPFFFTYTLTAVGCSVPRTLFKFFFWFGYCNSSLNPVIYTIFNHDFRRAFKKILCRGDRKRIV
Type: cell-based
Protocol: as §1, §2, §3, §4

| SMILES | Alpha 2A intrinsic activity (efficacy) |
| --- | --- |
| c1ccc(C(c2cnc[nH]2)c2cccc3cccnc23)nc1 (stereo not shown) | 0.15 |
| c1ccc(C(c2cnc[nH]2)c2cccc3ncccc23)nc1 (stereo not shown) | 0.13 |
| c1cncc(C(c2cnc[nH]2)c2cccc3cccnc23)c1 (stereo not shown) | 0.50 |
| c1cncc(C(c2cnc[nH]2)c2cccc3c2OCC3)c1 (stereo not shown) | 0.46 |
| c1ccc(C(c2cnc[nH]2)c2cccc3c2OCC3)nc1 (stereo not shown) | 0.23 |
| c1cncc(C(c2cnc[nH]2)c2cccc3ncccc23)c1 (stereo not shown) | 0.12 |

Same assay, conditions: transfected NIH-3T3 cells with Gq/i5, ND = not determinable at concentrations less than 10 micromolar, read-out: Alpha 2A potency (EC50)

| SMILES | EC50 |
| --- | --- |
| c1ccc(C(c2cnc[nH]2)c2cccc3cccnc23)nc1 (stereo not shown) | > 10 µM |
| c1ccc(C(c2cnc[nH]2)c2cccc3ncccc23)nc1 (stereo not shown) | > 10 µM |
| c1cncc(C(c2cnc[nH]2)c2cccc3cccnc23)c1 (stereo not shown) | 0.576 µM |
| c1cc(C(c2ccncc2)c2cnc[nH]2)c2cccnc2c1 (stereo not shown) | > 10 µM |
| c1cncc(C(c2cnc[nH]2)c2cccc3c2OCC3)c1 (stereo not shown) | 0.43 µM |
| c1cncc(C(c2cnc[nH]2)c2cccc3ncccc23)c1 (stereo not shown) | > 10 µM |

Source: patent publication US8383646B2, “Therapeutic ((bicylicheteroaryl)imidazolyl) methylheteroaryl compounds” (Allergan, Inc., priority 2007, dated 2013)
